Data as given in patent publication US20100247517A1, “USE OF MNK INHIBITORS FOR THE TREATMENT OF ALZHEIMER'S DISEASE” (Boehringer Ingelheim Internationational GmbH, priority 2007, published 2010).

How the values were obtained:
Human Mnk1-GST = biological target: T1, Human Mnk1-GST (Homo sapiens, UniProt Q9BUB5); assay: In vitro phosphorylation of human Tau by Mnk1 (kinase reaction, immunoblotting); assay type: biochemical
T1 construct: GST; made in house; host or cells: E. coli
Description: (§1) Kinase reaction: The kinase reactions were carried out in a total volume of 30 μl in reaction buffer (20 mM HEPES/KOH pH 7.4, 10 mM MgCl2, 2 mM DTT, 0.1% Pluronic F127, 0.01% BSA) containing 500 μM ATP, 0.5 μM human recombinant Tau (USBiological, T1040-10), inhibitors and kinases as indicated in figures. Human Mnk1-GST and Mnk2-GST was expressed in E. coli and purifies by Äkta Explorer 100 (Amersham) and pre-activated by human recombinant Erk2 (DeveloGen). Aliquots were stored at −80° C. up to use. Recombinant human PKA (Calbiochem, 539482) was used as positive control. All components of reactions were pre-diluted in reaction buffer. […] Samples were analysed by Immunoblotting.
(§2) Immunoblotting: Laemmli sample buffer (Biorad) was added to the stopped kinase reactions, subjected to SDS-PAGE and electroblotted on a nitrocellulose membrane (Schleicher & Schüll). The transferred membrane was incubated with NET-G buffer (50 mM Tris/HCl pH 7.5, 5 mM EDTA, 150 mM NaCl, 0.05% Triton X-100, 0.25% (w/v) gelatine) containing 1/1000 (v/v) anti Tau (phospho S262) or anti Tau (phospho S356) antibodies (Abcam, ab4856 and ab4857) over night at 4° C. After washing with NET-G buffer the membrane was treated with NET-G buffer containing 1/5000 (v/v) HRP-conjugated anti rabbit IgG antibody (Pierce) for 2 hours at room temperature.
(§3) For loading control membrane was stripped with stripping buffer (200 mM glycine/HCl pH 2.2, 0.1% SDS, 0.1% Tween 20) for 3 hours at room temperature. The membrane was then treated with NET-G buffer containing 1/4000 (v/v) anti Tau antibody (Abcam, ab19326). After washing with NET-G buffer the membrane was incubated with NET-G buffer containing 1/5000 (v/v) HRP-conjugated anti goat IgG antibody (DakoCytomation). Signals were detected with chemiluminescence using ECL Super Signal West Dura kit (Pierce).

Human Mnk2-GST = biological target: T2, Human Mnk2-GST (Homo sapiens, UniProt Q9HBH9); assay: In vitro phosphorylation of human Tau by Mnk2 (kinase reaction, immunoblotting); assay type: biochemical
T2 construct: GST; made in house; host or cells: E. coli
T2 sequence (Q9HBH9 whole entry): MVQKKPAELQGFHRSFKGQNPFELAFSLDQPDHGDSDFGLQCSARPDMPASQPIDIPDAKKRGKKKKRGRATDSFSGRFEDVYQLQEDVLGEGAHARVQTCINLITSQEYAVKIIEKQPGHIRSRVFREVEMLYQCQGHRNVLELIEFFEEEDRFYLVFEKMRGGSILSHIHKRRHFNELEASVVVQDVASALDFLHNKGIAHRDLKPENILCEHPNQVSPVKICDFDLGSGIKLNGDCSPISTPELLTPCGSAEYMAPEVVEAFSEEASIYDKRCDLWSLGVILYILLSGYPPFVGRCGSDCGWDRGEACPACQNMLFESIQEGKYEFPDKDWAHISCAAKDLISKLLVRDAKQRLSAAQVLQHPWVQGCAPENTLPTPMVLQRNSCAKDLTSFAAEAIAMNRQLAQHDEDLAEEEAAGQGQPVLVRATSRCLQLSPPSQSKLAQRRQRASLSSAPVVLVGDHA
Description: as §1, §2, §3

[1] = results summary of FIG. 2 / FIG. 3

T1 sequence (Q9BUB5 whole entry): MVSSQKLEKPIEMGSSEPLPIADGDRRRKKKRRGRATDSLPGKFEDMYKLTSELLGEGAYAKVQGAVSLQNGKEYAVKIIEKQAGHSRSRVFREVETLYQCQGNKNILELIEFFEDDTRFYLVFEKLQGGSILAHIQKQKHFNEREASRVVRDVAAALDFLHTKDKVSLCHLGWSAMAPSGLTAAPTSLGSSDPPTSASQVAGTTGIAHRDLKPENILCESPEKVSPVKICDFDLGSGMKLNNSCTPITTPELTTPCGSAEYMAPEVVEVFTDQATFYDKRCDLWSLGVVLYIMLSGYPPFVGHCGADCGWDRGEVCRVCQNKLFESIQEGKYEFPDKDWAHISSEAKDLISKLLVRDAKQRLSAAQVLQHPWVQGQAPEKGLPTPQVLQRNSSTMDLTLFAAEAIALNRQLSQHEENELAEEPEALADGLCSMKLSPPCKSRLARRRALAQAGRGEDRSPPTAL

SMILES: CCOc1cc(C(N)=O)ccc1Nc1ncnc2scc(C)c12 [EDJ101401, 3-ethoxy-4-(5-methyl-thieno[2,3-D]pyrimidine-4-ylamino)-benzamide]
- inhibition of in vitro phosphorylation of Ser262 in human Tau by Mnk1 (Human Mnk1-GST; 0.5 μM human Tau, 500 μM ATP, 120 min at 37° C., Erk2 (5 nM) used to activate Mnk, Western blot, FIG. 2A): in a dose dependent manner
- inhibition of in vitro phosphorylation of Ser356 in human Tau by Mnk1 (Human Mnk1-GST; 0.5 μM human Tau, 500 μM ATP, 120 min at 37° C., Erk2 (5 nM) used to activate Mnk, Western blot, FIG. 2B): in a dose dependent manner
- inhibition of Mnk1-dependent tau phosphorylation (Human Mnk1-GST; [1]): dose-dependent inhibition
- inhibition of in vitro phosphorylation of Ser262 in human Tau by Mnk2 (Human Mnk2-GST; 0.5 μM human Tau, 500 μM ATP, 120 min at 37° C., Western blot, FIG. 2A / 3A): in a dose dependent manner
- inhibition of in vitro phosphorylation of Ser356 in human Tau by Mnk2 (Human Mnk2-GST; 0.5 μM human Tau, 500 μM ATP, 120 min at 37° C., Western blot, FIG. 2B / 3B): in a dose dependent manner
- inhibition of Mnk2-dependent tau phosphorylation (Human Mnk2-GST; [1]): dose-dependent inhibition
